Each structure is given as a SMILES string. In brackets after ≈: the same amount, converted by molar mass. Several values for one entry are separate records, joined by “and”; a condition that tells them apart may be missing. Identical values can stand only once.

One assay concerns TPA-induced ear oedema. As to the kind of experiment: Anti-inflammatory activity after a single topical administration in TPA-induced ear oedema. Type of assay: in vivo, mouse. To be noted: for Inhibition vs TPA (%) / Ear oedema Mean / anti-inflammatory effect (conclusion in words): single topical application; for Inhibition vs TPA (%): T6h; for Ear oedema Mean: mouse ear thickness at T6h; for ranking compared to BPO at 5%: compound at 5%. Here is the method: the aim is to evaluate the anti-inflammatory activity of the peroxides by measuring the thickness of mouse ear after TPA topical application. The anti-inflammatory activity is defined as a inhibition percentage of the TAP-induced ear oedema.
An oedema was induced by a single topical application of 20 μl of TPA dissolved in acetone at 0.01%.
Then a single topical application of tested compounds dissolved in TPA solution.
Ear thickness was measured at T6h.
Results are expressed in percentages based on the inhibition on the oedema induced by the TPA application.
Benzoyl peroxide (BPO) was tested 2 times as a reference peroxide.

In a further assay the test system is P. acnes CIP53.117. The assay is described as follows: Minimum inhibitory concentration (MIC) on Propionibacterium acnes, dilution in liquid medium. It is filed as cell-based. To be noted: strain CIP53.117, anaerobic, 36° C., minimum 72 h, range 2.5 mg/L to 1280 mg/L. An excerpt:
(§1) the aim is to evaluate the anti-bacterial activity of the peroxides by measuring the minimum inhibitory concentration (MIC). The MIC is defined as the lowest concentration of product capable of inhibiting all visible growth.
(§2) The sensitivity of the products is investigated on two strains from the Pasteur Institute collection (CIP) of Propionibacterium acnes (P. acnes): • P. acnes CIP53.117, equivalent to ATCC6919, origin: facial acne lesion (1920), source CRBIP, Pasteur Institute, Paris • P. acnes CIPA179, origin: sebaceous gland (1946), source CRBIP, Pasteur Institute, Paris Tests on the Products:
(§3) The products are dissolved at 1280 mg/L in a mixture of absolute ethanol/sterile Tween 80/sterile Wilkins Chalgren broth ([…]). The dilution ranges used are an adaptation of the method described by the CLSI for methods of dilution in liquid medium. The range consists of 10 concentrations from 2.5 mg/L to 1280 mg/L at intervals of ratio 2.
(§4) The suspension of P. acnes is prepared in Wilkins Chalgren broth and calibrated at an optical density of about 0.4 at wavelength of 525 nm. It is then diluted to 1/10 in Wilkins Chalgren broth and then put in the test cupules to obtain a final suspension of about 10^5-10^6 CFU/mL in each test cupule.
(§5) The solutions of the test products are distributed on a 96-well microplate and incubated at 36° C.±2° C. under anaerobic atmosphere for a minimum of 72 h. The first cupule for which there is no growth visible to the naked eye is regarded as the MIC.

Another assay has as its system P. acnes CIPA179. The description is as above. It is filed as cell-based. The conditions noted are these: strain CIPA179, anaerobic, 36° C., minimum 72 h, range 2.5 mg/L to 1280 mg/L.
From the text: as §1, §2, §3, §4, §5

Setting [1] is: TPA-induced ear oedema mouse model.

The term MIC denotes the least concentration at which growth counts as inhibited. Turning to `CC(=O)OCOc1ccccc1C(=O)OOC(=O)c1ccccc1` [Example 2, (2-acetoxymethoxy-benzoyl)benzoyl peroxide], the “Inhibition vs TPA (%)” value is 19.7% in the assay with TPA-induced ear oedema (compound 1% in TPA 0.01%), 42.5% in the assay on TPA-induced ear oedema (compound 2.5% in TPA 0.01%) and 71.7% in the assay with TPA-induced ear oedema (compound 5% in TPA 0.01%). Also, the “Ear oedema Mean” value with TPA-induced ear oedema (compound 1% in TPA 0.01%) was 20.40; in the assay on TPA-induced ear oedema (compound 2.5% in TPA 0.01%), 14.60; in the assay on TPA-induced ear oedema (compound 5% in TPA 0.01%), 7.20. Besides, the “ranking compared to BPO at 5%” value in the assay on TPA-induced ear oedema (setting [1]) was “superior compared to BPO 5%”. Moreover, the “anti-inflammatory effect (conclusion in words)” value with TPA-induced ear oedema (setting [1]) was “moderate anti-inflammatory effect”. Moreover, the minimal inhibitory concentration (MIC) in the assay on P. acnes CIP53.117 (Cutibacterium acnes) amounted to 160 µg/mL (≈ 484 µM); with P. acnes CIPA179 (Cutibacterium acnes), 80 µg/mL (≈ 242 µM).
Consider `CC(=O)OCOc1ccccc1C(=O)OOC(=O)c1ccccc1OCOC(C)=O` [Example 1, bis(2-acetoxymethoxy)-benzoyl peroxide], for which the “ranking of Ex n°1 against Ex n°2” value in the assay on TPA-induced ear oedema (both at 5%, TPA-induced ear oedema mouse model) is given as “slightly better than Ex n°2 at 5%”. The “Inhibition vs TPA (%)” value with TPA-induced ear oedema (compound 1% in TPA 0.01%) amounted to 45.7%; in the assay with TPA-induced ear oedema (compound 2.5% in TPA 0.01%), 74.8%; in the assay with TPA-induced ear oedema (compound 5% in TPA 0.01%), 81.9%. Further, the “Ear oedema Mean” value came out at 13.80 with TPA-induced ear oedema (compound 1% in TPA 0.01%), 6.40 with TPA-induced ear oedema (compound 2.5% in TPA 0.01%) and 4.60 in the assay on TPA-induced ear oedema (compound 5% in TPA 0.01%). The “ranking compared to BPO at 5%” value in the assay on TPA-induced ear oedema (setting [1]) is given as “superior compared to BPO 5%”. Moreover, in the assay on TPA-induced ear oedema (setting [1]), the “anti-inflammatory effect (conclusion in words)” value is on record as “strong dose-dependent anti-inflammatory effect”. Further, the “MIC (minimum inhibitory concentration)” value against P. acnes CIP53.117 and against P. acnes CIPA179 was 320 µg/mL (≈ 765 µM) each time.
Consider `O=C(OOC(=O)c1ccccc1)c1ccccc1` [BPO, Benzoyl peroxide, reference compound], for which, in the assay with TPA-induced ear oedema (compound 5% in TPA 0.01%), the “Inhibition vs TPA (%)” value is 21.4% and 27.8%; the “Ear oedema Mean” value was 17.60 and 20.80.
